According to patent publication US10485235B2, “Aryloxypyrimidinyl ethers as herbicides” (FMC Corporation, priority 2015, dated 2019):

Key:
Type in all cases: in vivo
[1] = test system: ryegrass, Italian (Italian ryegrass, Lolium multiflorum); test: Test A postemergence, Italian ryegrass; details: postemergence, 0 to 100 scale, 0 is no effect, 100 is complete control, approximately 10 days
Procedure, shortened: (§1)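 Ratings run 0–100, where 100 is complete control, and were scored visually against untreated plants about 10 days after treatment under greenhouse conditions. Formulated chemicals were sprayed either onto the soil surface after seeding (preemergence) or onto one- to two-leaf seedlings 2–10 cm high (postemergence).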

[2] = test system: barnyardgrass (Echinochloa crus-galli); test: Test A preemergence, barnyardgrass; details: Preemergence, 0 to 100 scale (0 no effect, 100 complete control)
Procedure, shortened: as §1

[3] = test system: pigweed (Amaranthus retroflexus); test: Test A postemergence, pigweed; details: postemergence, 0 to 100 scale, 0 is no effect, 100 is complete control, approximately 10 days
Procedure, shortened: as §1

[4] = test system: ryegrass, Italian (Italian ryegrass, Lolium multiflorum); test: Test A preemergence, Italian ryegrass; details: Preemergence, 0 to 100 scale (0 no effect, 100 complete control)
Procedure, shortened: as §1

[5] = test system: ducksalad (Heteranthera limosa); test: Test B flooded paddy test, ducksalad; details: 250 g ai/ha, Flood; visual rating after 13 to 15 days; scale 0 to 100, 0 is no effect, 100 is complete control
Procedure, shortened: (§2)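 Plants grown to the 2-leaf stage; pots flooded to 3 cm above soil and compounds applied directly into the paddy water, depth held throughout. After 13 to 15 days in the greenhouse, injury was rated visually against untreated controls on a 0–100 scale (0 no effect, 100 complete control).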

[6] = test system: blackgrass (Alopecurus myosuroides); test: Test A postemergence, blackgrass; details: postemergence, 0 to 100 scale, 0 is no effect, 100 is complete control, approximately 10 days
Procedure, shortened: as §1

[7] = test system: galium (catchweed bedstraw, Galium aparine); test: Test A postemergence, galium; details: postemergence, 0 to 100 scale, 0 is no effect, 100 is complete control, approximately 10 days
Procedure, shortened: as §1

[8] = test system: foxtail, giant (giant foxtail, Setaria faberii); test: Test A postemergence, giant foxtail; details: postemergence, 0 to 100 scale, 0 is no effect, 100 is complete control, approximately 10 days
Procedure, shortened: as §1

[9] = test system: kochia (Kochia scoparia); test: Test A preemergence, kochia; details: Preemergence, 0 to 100 scale (0 no effect, 100 complete control)
Procedure, shortened: as §1

[10] = test system: rice (Oryza sativa); test: Test B flooded paddy test, rice; details: 250 g ai/ha, Flood; visual rating after 13 to 15 days; scale 0 to 100, 0 is no effect, 100 is complete control
Procedure, shortened: as §2

[11] = test system: wheat (Triticum aestivum); test: Test A postemergence, wheat; details: postemergence, 0 to 100 scale, 0 is no effect, 100 is complete control, approximately 10 days
Procedure, shortened: as §1

[12] = test system: barnyardgrass (Echinochloa crus-galli); test: Test B flooded paddy test, barnyardgrass; details: 250 g ai/ha, Flood; visual rating after 13 to 15 days; scale 0 to 100, 0 is no effect, 100 is complete control
Procedure, shortened: as §2

[13] = test system: ragweed (common ragweed, Ambrosia elatior); test: Test A preemergence, ragweed; details: Preemergence, 0 to 100 scale (0 no effect, 100 complete control)
Procedure, shortened: as §1

[14] = test system: corn (Zea mays); test: Test A postemergence, corn; details: postemergence, 0 to 100 scale, 0 is no effect, 100 is complete control, approximately 10 days
Procedure, shortened: as §1

[15] = test system: kochia (Kochia scoparia); test: Test A postemergence, kochia; details: postemergence, 0 to 100 scale, 0 is no effect, 100 is complete control, approximately 10 days
Procedure, shortened: as §1

[16] = test system: foxtail, giant (giant foxtail, Setaria faberii); test: Test A preemergence, giant foxtail; details: Preemergence, 0 to 100 scale (0 no effect, 100 complete control)
Procedure, shortened: as §1

[17] = test system: pigweed (Amaranthus retroflexus); test: Test A preemergence, pigweed; details: Preemergence, 0 to 100 scale (0 no effect, 100 complete control)
Procedure, shortened: as §1

[18] = test system: ragweed (common ragweed, Ambrosia elatior); test: Test A postemergence, ragweed; details: postemergence, 0 to 100 scale, 0 is no effect, 100 is complete control, approximately 10 days
Procedure, shortened: as §1

[19] = test system: barnyardgrass (Echinochloa crus-galli); test: Test A postemergence, barnyardgrass; details: postemergence, 0 to 100 scale, 0 is no effect, 100 is complete control, approximately 10 days
Procedure, shortened: as §1

[20] = test system: sedge, umbrella (small-flower umbrella sedge, Cyperus difformis); test: Test B flooded paddy test, umbrella sedge; details: 250 g ai/ha, Flood; visual rating after 13 to 15 days; scale 0 to 100, 0 is no effect, 100 is complete control
Procedure, shortened: as §2

SMILES | Plant response rating, Ryegrass, Italian ([1]; 125 g ai/ha) | Plant response rating, Barnyardgrass ([2]; 125 g ai/ha) | Plant response rating, Pigweed ([3]; 125 g ai/ha) | Plant response rating, Ryegrass, Italian ([4]; 125 g ai/ha) | Plant response rating, Ducksalad [5] | Plant response rating, Blackgrass ([6]; 125 g ai/ha) | Plant response rating, Galium ([7]; 125 g ai/ha) | Plant response rating, Foxtail, Giant ([8]; 125 g ai/ha) | Plant response rating, Kochia ([9]; 125 g ai/ha) | Plant response rating, Rice [10] | Plant response rating, Wheat ([11]; 125 g ai/ha) | Plant response rating, Barnyardgrass [12] | Plant response rating, Ragweed ([13]; 125 g ai/ha) | Plant response rating, Corn ([14]; 125 g ai/ha) | Plant response rating, Kochia ([15]; 125 g ai/ha) | Plant response rating, Foxtail, Giant ([16]; 125 g ai/ha) | Plant response rating, Pigweed ([17]; 125 g ai/ha) | Plant response rating, Ragweed ([18]; 125 g ai/ha) | Plant response rating, Barnyardgrass ([19]; 125 g ai/ha) | Plant response rating, Sedge, Umbrella [20] | also measured
FC(F)C(F)(F)C(F)(F)C(F)(F)COc1c(Br)cccc1Oc1ncc(Cl)cn1 [Compound 53] | 20 | 60 | 100 | 20 | 90 | 30 | 90 | 30 | 20 | 15 | 10 | 0 | 0 | 10 | 100 | 100 | 80 | 40 | 40 | 80 | Plant response rating, Ryegrass, Italian ([1]; 500 g ai/ha): 70; Plant response rating, Barnyardgrass ([2]; 500 g ai/ha): 100; Plant response rating, Pigweed ([3]; 500 g ai/ha): 100; Plant response rating, Ryegrass, Italian ([4]; 500 g ai/ha): 80; Plant response rating, Blackgrass ([6]; 500 g ai/ha): 60; Plant response rating, Galium ([7]; 500 g ai/ha): 100; Plant response rating, Foxtail, Giant ([8]; 500 g ai/ha): 100; Plant response rating, Kochia ([9]; 500 g ai/ha): 90; Plant response rating, Wheat ([11]; 500 g ai/ha): 30; Plant response rating, Ragweed ([13]; 500 g ai/ha): 20; Plant response rating, Corn ([14]; 500 g ai/ha): 30; Plant response rating, Kochia ([15]; 500 g ai/ha): 100; Plant response rating, Foxtail, Giant ([16]; 500 g ai/ha): 100; Plant response rating, Pigweed ([17]; 500 g ai/ha): 100; Plant response rating, Ragweed ([18]; 500 g ai/ha): 80; Plant response rating, Barnyardgrass ([19]; 500 g ai/ha): 100
FC(F)(F)CCCOc1c(Oc2ncc(Cl)cn2)cccc1C(F)(F)F [Compound 54] | 20 | 90 | 80 | 80 | 100 | 10 | 50 | 70 | 30 | 40 | 10 | 40 | 0 | 20 | 50 | 100 | 100 | 10 | 20 | 100 | Plant response rating, Ryegrass, Italian ([1]; 31 g ai/ha): 0; Plant response rating, Barnyardgrass ([2]; 31 g ai/ha): 20; Plant response rating, Pigweed ([3]; 31 g ai/ha): 20; Plant response rating, Ryegrass, Italian ([4]; 31 g ai/ha): 10; Plant response rating, Blackgrass ([6]; 31 g ai/ha): 0; Plant response rating, Galium ([7]; 31 g ai/ha): 20; Plant response rating, Foxtail, Giant ([8]; 31 g ai/ha): 10; Plant response rating, Kochia ([9]; 31 g ai/ha): 0; Plant response rating, Wheat ([11]; 31 g ai/ha): 0; Plant response rating, Ragweed ([13]; 31 g ai/ha): 0; Plant response rating, Corn ([14]; 31 g ai/ha): 10; Plant response rating, Kochia ([15]; 31 g ai/ha): 10; Plant response rating, Foxtail, Giant ([16]; 31 g ai/ha): 50; Plant response rating, Pigweed ([17]; 31 g ai/ha): 20; Plant response rating, Ragweed ([18]; 31 g ai/ha): 0; Plant response rating, Barnyardgrass ([19]; 31 g ai/ha): 10
